Assay results from patent US6291673A, “Folic acid derivatives” (Purdue Research Foundation, priority 2000, dated 2001).
“And” between values parts separate entries of the source, which are not always exact repeats. Identical values can stand only once.

Tests used:
[1] = test system: carboxypeptidase G; experiment: Carboxypeptidase G enantiospecific hydrolysis of folic acid derivatives (HPLC of released pteroic acid); type: biochemical; conditions: Tris buffer with ZnCl2, 37° C., 2 h, pyrofolates and monoesters first hydrolysed in 0.25 M NaOH, error about ±2-3%
Method: Since it had been previously observed that guanidine bases are capable of racemizing acylated glutamates (under more forcing conditions than were employed in the reactions listed in Table 2), the optical purity of the folic acid 1 (=25a) and several of its derivatives which had been produced was evaluated. […] In order to assay the pyrofolates 8 and 9 as well as the α- and γ-monoesters of folic acid L-33a and L-33c, an initial mild basic hydrolysis was required prior to the enzyme assay. […] Control reactions on synthetic D-1=25a and DL-1=25a (Table 3, Entries 3,4) serve to confirm the error limits of the enzymatic method at about ±2-3%.
Determination of optical purity of folate derivatives listed in Table 3 using enzymatic hydrolysis with carboxypeptidase G:30:
The folic acid derivative (~2.5 mg) was dissolved in 1 mL Tris buffer containing 20 μg ZnCl2 and 50 microunit enzyme (Sigma Chemical Company) was added. The solution was incubated at 37° C. for 2 h. A 20 μL sample was tested by HPLC on a […] MICROSORB C-18 reverse phase column (Eluent A: 5 mM phosphate buffer; Eluent B: acetonitrile; flow rate: 1 mL/min; gradient: 0-5 min, 5% B, 10-15, 25% B). Folic acid was eluted at 4.1 min, pteroic acid at 10.6 min, methotrexate at 10.8 min, and amino-N10-methyl pteroic acid at 11.9 min. Peak area was used as the standard for analysis.
For folate derivatives, ~5 mg was first dissolved in 1 mL 0.25 M NaOH and incubated at room temperature for 1 h. Then the solution was acidified by 1 M HCl until precipitation. After centrifugation, washing, and drying, the ~2.5 mg yellow pellet was dissolved in 1 mL Tris buffer and reacted with enzyme under the conditions described above.

[2] = test system: carboxypeptidase G; conditions: footnote c of Table 3; cited from earlier work
[3] = Storage stability of pteroylazide 27; type: physicochemical
From the text: The known impurities include ~4% pteroic acid 10, ~2% of the aniline (PteNH2) apparently resulting from Curtius rearrangement of 27, ~2% of pteroylamide (PteCO--NH2 11); and <1% of folic acid 1. […] Unlike some acyl azides, pteroylazide 27 is quite stable; samples of the lemon-yellow solid may be stored in the dark in a freezer for at least 12 months without appreciable decomposition.

[4] = biological target: T1, cell surface folate receptors (Homo sapiens, UniProt P15328); experiment: Affinities of FITC-EDA-folate for cell surface folate receptors on KB cells; type: binding
T1 construct: KB cells overexpressing the receptor; endogenous in cells; host or cells: KB cells
Method: To determine the affinities of EDA-folate for cell surface folate receptors, the α- and γ-isomers were labeled with the fluorophore FITC and incubated with KB cells overexpressing the receptor. […] The low level of non-specific uptake observed with both isomers was probably due to the hydrophobicity of the FITC conjugates.

T1 sequence (P15328 25-257): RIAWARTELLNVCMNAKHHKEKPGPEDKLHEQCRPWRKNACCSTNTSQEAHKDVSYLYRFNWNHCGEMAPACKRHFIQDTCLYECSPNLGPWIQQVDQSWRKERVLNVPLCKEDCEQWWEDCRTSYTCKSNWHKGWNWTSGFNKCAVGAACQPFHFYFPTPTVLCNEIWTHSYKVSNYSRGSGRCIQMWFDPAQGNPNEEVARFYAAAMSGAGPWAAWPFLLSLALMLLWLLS

Compound | % Hydrolysis [1] | other results
Nc1nc2ncc(CNc3ccc(C(=O)N4C(=O)CCC4C(=O)O)cc3)nc2c(=O)[nH]1 (centres unmarked) [Compound 9, Pyrofolic acid] | 51.7% | 
CN(Cc1cnc2nc(N)nc(N)c2n1)c1ccc(C(=O)N[C@H](CCC(=O)O)C(=O)O)cc1 [Compound D-34d] |  | hydrolysis by carboxypeptidase G [2]: not to be hydrolyzed
Nc1nc2ncc(CNc3ccc(C(=O)NC(CCC(=O)O)C(=O)O)cc3)nc2c(=O)[nH]1 (racemic) [D, L-25a] | 52.3% | 
Nc1nc2ncc(CNc3ccc(C(=O)N[C@H](CCC(=O)O)C(=O)O)cc3)nc2c(=O)[nH]1 [Compound D-25a] | 3.0% | 
CC(C)=CCOC(=O)[C@H](CCC(=O)O)NC(=O)c1ccc(NCc2cnc3nc(N)[nH]c(=O)c3n2)cc1 [Compound L-33c] | 85.9% and 96.7% | 
Nc1nc2ncc(CN(C(=O)C(F)(F)F)c3ccc(C(=O)N4C(=O)CCC4C(=O)O)cc3)nc2c(=O)[nH]1 (centres unmarked) [Compound 8, N10-Trifluoroacetylpyrofolic acid] | 49.5% | 
[N-]=[N+]=NC(=O)c1ccc(NCc2cnc3nc(N)[nH]c(=O)c3n2)cc1 [Compound 27, Pteroylazide] |  | shelf life ([3]; room temperature, protected from light): at least a month; HPLC profile after exposure to light ([3]; samples exposed to light (darken appreciably)): not substantially degraded; storage time without appreciable decomposition ([3]; solid, in the dark in a freezer): at least 12 months
Nc1nc2ncc(CNc3ccc(C(=O)N[C@@H](CCC(=O)O)C(=O)NCCNC(=S)Nc4ccc5c(c4)C(=O)OC54c5ccc(O)cc5Oc5cc(O)ccc54)cc3)nc2c(=O)[nH]1 [α-isomer of FITC-EDA-folate] |  | affinity for the cell surface receptors ([4]; KB cells overexpressing the receptor): virtually no affinity
COC(=O)CC[C@H](NC(=O)c1ccc(NCc2cnc3nc(N)[nH]c(=O)c3n2)cc1)C(=O)O [Compound L-33a, Tetramethylguanidinium (L)-methyl folate (γ)] | 96.8% | 
Nc1nc(O)c2nc(CNc3ccc(C(=O)N[C@@H](CCC(=O)NCCNC(=S)Nc4ccc5c(c4)C(=O)OC54c5ccc(O)cc5Oc5cc(O)ccc54)C(=O)O)cc3)cnc2n1 [FITC-EDA-folate(γ)] |  | Kd ([4]; KB cells overexpressing the receptor, read-out: concentration required to reach 50% maximal binding): 1.6 nM
Nc1nc2ncc(CNc3ccc(C(=O)N[C@@H](CCC(=O)O)C(=O)O)cc3)nc2c(=O)[nH]1 [Compound L-1, Folic acid] | 96.7% | competition with the receptor binding of FITC-EDA-folate(γ) ([4]; excess folic acid in the incubation medium, KB cells): effectively competed; % Hydrolysis ([1]; listed as L-25a): 98.4% and 98.6%
CN(Cc1cnc2nc(N)nc(N)c2n1)c1ccc(C(=O)N[C@@H](CCC(=O)O)C(=O)O)cc1 [Compound L-34d, L-methotrexate, reference compound] | 96.1% and 99.2% | 
COC(=O)CCC(NC(=O)c1ccc(NCc2cnc3nc(N)[nH]c(=O)c3n2)cc1)C(=O)O (racemic) [DL-33a, (DL)-methyl folate (γ)] | 54.4% | 
